Data taken from patent US20070128217A1 (priority 2003, published 2007).

Assays:
[1] = system: control sera (pooled serum of ten healthy LUMC hospital workers; commercial negative donor pooled serum from the Dutch bloodbank); format: binding, human; design: Binding of Control serum LUMC to linear peptides / Binding of Control serum Blood-bank to linear peptides / Binding of Control serum LUMC to looped peptides / Binding of Control Serum Blood-Bank to Looped peptides / Binding of Control serum LUMC to linear peptides of the protein M of SARS-CoV Urbani / Binding of Control serum Blood-bank to linear peptides of the protein M of SARS-CoV Urbani / Binding of Control serum LUMC to looped peptides of the protein M of SARS-CoV Urbani / Binding of Control Serum Blood-Bank to Looped peptides of the protein M of SARS-CoV Urbani: unit not given here
[2] = system: rabbit serum obtained by immunizing a rabbit with the SARS-CoV strain Frankfurt 1; format: binding; design: Binding of a rabbit serum to linear peptides / Binding of a rabbit serum to looped peptides / Rabbit serum linear peptides / Rabbit serum looped peptides / Binding of a rabbit serum to linear peptides of protein N of SARS-CoV Urbani (Rabbit serum linear peptides) / Binding of a rabbit serum to looped/cyclic peptides of protein N of SARS-CoV Urbani (Rabbit serum looped peptides): unit not given here
[3] = system: antibodies in sera from SARS patients (sera 1a, 1b, 2, 6, 37, 62, London, SARS-yellow, SARS-green); format: binding, human; design: Binding of serum 6 to linear peptides of protein X1 of SARS-CoV Urbani / Binding of serum 37 to linear peptides of protein X1 of SARS-CoV Urbani / Binding of serum 6 to looped/cyclic peptide (PEPSCAN-ELISA) / Binding of serum 37 to looped/cyclic peptide (PEPSCAN-ELISA) / Binding of serum 37 to looped/cyclic peptides of protein X1 of SARS-CoV Urbani / Binding of serum 6 to linear peptides of protein X2 / Binding of serum 37 to linear peptides of protein X2 / Binding of serum 37 to looped/cyclic peptides of protein X2 of SARS-CoV Urbani / Binding of serum 6 to linear peptides of protein M of SARS-CoV Urbani / Binding of serum 37 to linear peptides of protein M of SARS-CoV Urbani / Binding of serum 6 to looped/cyclic peptides of protein M of SARS-CoV Urbani / Binding of serum 37 to looped/cyclic peptides of protein M of SARS-CoV Urbani / Binding of serum 6 to linear peptides of protein X3 of SARS-CoV Urbani / Binding of serum 37 to linear peptides of protein X3 of SARS-CoV Urbani / Binding of serum 37 to looped/cyclic peptides of protein X3 of SARS-CoV Urbani / Binding of serum 6 to linear peptides of protein X4 of SARS-CoV Urbani / Binding of serum 37 to linear peptides of protein X4 of SARS-CoV Urbani / Binding of serum 37 to looped/cyclic peptides of protein X4 of SARS-CoV Urbani / Binding of serum 6 to linear peptides of protein X5 of SARS-CoV Urbani / Binding of serum 37 to linear peptides of protein X5 of SARS-CoV Urbani / Binding of serum 37 to looped/cyclic peptides of protein X5 of SARS-CoV Urbani / Binding of serum 6 to linear peptides of protein N of SARS-CoV Urbani / Binding of serum 37 to linear peptides of protein N of SARS-CoV Urbani / Binding of serum 6 to linear peptide (PEPSCAN-ELISA) / Binding of serum 1a to looped/cyclic peptides of protein N of SARS-CoV Urbani / Binding of serum 1b to looped/cyclic peptides of protein N of SARS-CoV Urbani / Binding of serum 2 to looped/cyclic peptides of protein N of SARS-CoV Urbani / Binding of serum 6 to looped/cyclic peptides of protein N of SARS-CoV Urbani / Binding of serum 37 to looped/cyclic peptides of protein N of SARS-CoV Urbani / Binding of serum 62 to looped/cyclic peptides of protein N of SARS-CoV Urbani / Binding of serum London to looped/cyclic peptides of protein N of SARS-CoV Urbani / Binding of serum SARS-green to looped/cyclic peptides of protein N of SARS-CoV Urbani: unit not given here

NLVIGFLFLAWIMLL
Binding of Control Serum Blood-Bank to Looped peptides of the protein M of SARS-CoV Urbani [1]: 0.6
Binding of Control serum Blood-bank to linear peptides of the protein M of SARS-CoV Urbani [1]: 0.5
Binding of Control serum LUMC to linear peptides of the protein M of SARS-CoV Urbani [1]: 0.3
Binding of Control serum LUMC to looped peptides of the protein M of SARS-CoV Urbani [1]: 0.8
Rabbit serum linear peptides [2]: 0.2
Rabbit serum looped peptides [2]: 0.2
Binding of serum 1a to linear peptides of protein M of SARS-CoV Urbani [3]: 0.7
Binding of serum 1a to looped/cyclic peptides of protein M of SARS-CoV Urbani [3]: 0.7
Binding of serum 1b to linear peptides of protein M of SARS-CoV Urbani [3]: 0.5
Binding of serum 1b to looped/cyclic peptides of protein M of SARS-CoV Urbani [3]: 0.6
Binding of serum 2 to linear peptides of protein M of SARS-CoV Urbani [3]: 0.5
Binding of serum 2 to looped/cyclic peptides of protein M of SARS-CoV Urbani [3]: 0.5
Binding of serum 6 to linear peptides of protein M of SARS-CoV Urbani [3]: 0.3
Binding of serum 6 to looped/cyclic peptides of protein M of SARS-CoV Urbani [3]: 0.6
Binding of serum 37 to linear peptides of protein M of SARS-CoV Urbani [3]: 0.6
Binding of serum 37 to looped/cyclic peptides of protein M of SARS-CoV Urbani [3]: 0.6
Binding of serum 62 to linear peptides of protein M of SARS-CoV Urbani [3]: 0.7
Binding of serum 62 to looped/cyclic peptides of protein M of SARS-CoV Urbani [3]: 0.7
Binding of serum London to linear peptides of protein M of SARS-CoV Urbani [3]: 0.3
Binding of serum London to looped/cyclic peptides of protein M of SARS-CoV Urbani [3]: 0.3
Binding of serum SARS-green to linear peptides of protein M of SARS-CoV Urbani [3]: 0.2
Binding of serum SARS-green to looped/cyclic peptides of protein M of SARS-CoV Urbani [3]: 0.3
Binding of serum SARS-yellow to linear peptides of protein M of SARS-CoV Urbani [3]: 0.0
Binding of serum SARS-yellow to looped/cyclic peptides of protein M of SARS-CoV Urbani [3]: 0.5

NSVTDTIVVTEGDGI
Binding of Control Serum Blood-Bank to Looped peptides [1]: 0.4
Binding of Control serum Blood-bank to linear peptides [1]: 0.3
Binding of Control serum LUMC to linear peptides [1]: 0.4
Binding of Control serum LUMC to looped peptides [1]: 0.5
Binding of a rabbit serum to linear peptides [2]: 0.1
Binding of a rabbit serum to looped peptides [2]: 0.5
Binding of serum 1a to linear peptides of protein X1 of SARS-CoV Urbani [3]: 0.6
Binding of serum 1a to looped/cyclic peptides of protein X1 of SARS-CoV Urbani [3]: 0.4
Binding of serum 1b to linear peptides of protein X1 of SARS-CoV Urbani [3]: 0.5
Binding of serum 1b to looped/cyclic peptides of protein X1 of SARS-CoV Urbani [3]: 0.3
Binding of serum 2 to linear peptides of protein X1 of SARS-CoV Urbani [3]: 0.4
Binding of serum 2 to looped/cyclic peptides of protein X1 of SARS-CoV Urbani [3]: 0.2
Binding of serum 6 to linear peptides of protein X1 of SARS-CoV Urbani [3]: 0.4
Binding of serum 6 to looped/cyclic peptides of protein X1 of SARS-CoV Urbani [3]: 0.2
Binding of serum 37 to linear peptides of protein X1 of SARS-CoV Urbani [3]: 0.5
Binding of serum 37 to looped/cyclic peptides of protein X1 of SARS-CoV Urbani [3]: 0.4
Binding of serum 62 to linear peptides of protein X1 of SARS-CoV Urbani [3]: 0.4
Binding of serum 62 to looped/cyclic peptides of protein X1 of SARS-CoV Urbani [3]: 0.4
Binding of serum London to linear peptides of protein X1 of SARS-CoV Urbani [3]: 0.2
Binding of serum London to looped/cyclic peptides of protein X1 of SARS-CoV Urbani [3]: 0.2
Binding of serum SARS-green to linear peptides of protein X1 of SARS-CoV Urbani [3]: 0.2
Binding of serum SARS-green to looped/cyclic peptides of protein X1 of SARS-CoV Urbani [3]: 0.3
Binding of serum SARS-yellow to linear peptides of protein X1 of SARS-CoV Urbani [3]: 0.6
Binding of serum SARS-yellow to looped/cyclic peptides of protein X1 of SARS-CoV Urbani [3]: 0.3

NTRGNTYSTAWLCAL
Binding of Control Serum Blood-Bank to Looped peptides [1]: 0.4
Binding of Control serum Blood-bank to linear peptides [1]: 0.8
Binding of Control serum LUMC to linear peptides [1]: 0.7
Binding of Control serum LUMC to looped peptides [1]: 0.5
Rabbit serum linear peptides [2]: 0.8
Rabbit serum looped peptides [2]: 0.5
Binding of serum 1a to linear peptides of protein X5 of SARS-CoV Urbani [3]: 0.9
Binding of serum 1a to looped/cyclic peptides of protein X5 of SARS-CoV Urbani [3]: 0.4
Binding of serum 1b to linear peptides of protein X5 of SARS-CoV Urbani [3]: 0.6
Binding of serum 1b to looped/cyclic peptides of protein X5 of SARS-CoV Urbani [3]: 0.2
Binding of serum 2 to linear peptides of protein X5 of SARS-CoV Urbani [3]: 0.6
Binding of serum 2 to looped/cyclic peptides of protein X5 of SARS-CoV Urbani [3]: 0.4
Binding of serum 6 to linear peptides of protein X5 of SARS-CoV Urbani [3]: 0.7
Binding of serum 6 to looped/cyclic peptides of protein X5 of SARS-CoV Urbani [3]: 0.2
Binding of serum 37 to linear peptides of protein X5 of SARS-CoV Urbani [3]: 0.7
Binding of serum 37 to looped/cyclic peptides of protein X5 of SARS-CoV Urbani [3]: 0.5
Binding of serum 62 to linear peptides of protein X5 of SARS-CoV Urbani [3]: 0.7
Binding of serum 62 to looped/cyclic peptides of protein X5 of SARS-CoV Urbani [3]: 0.7
Binding of serum London to linear peptides of protein X5 of SARS-CoV Urbani [3]: 0.7
Binding of serum London to looped/cyclic peptides of protein X5 of SARS-CoV Urbani [3]: 0.1
Binding of serum SARS-green to linear peptides of protein X5 of SARS-CoV Urbani [3]: 0.6
Binding of serum SARS-green to looped/cyclic peptides of protein X5 of SARS-CoV Urbani [3]: 0.3
Binding of serum SARS-yellow to linear peptides of protein X5 of SARS-CoV Urbani [3]: 0.5
Binding of serum SARS-yellow to looped/cyclic peptides of protein X5 of SARS-CoV Urbani [3]: 0.5

PAGGALIARCWYLHE
Binding of Control Serum Blood-Bank to Looped peptides [1]: 0.8
Binding of Control serum Blood-bank to linear peptides [1]: 0.7
Binding of Control serum LUMC to linear peptides [1]: 0.4
Binding of Control serum LUMC to looped peptides [1]: 0.5
Rabbit serum linear peptides [2]: 0.5
Rabbit serum looped peptides [2]: 0.5
Binding of serum 1a to linear peptides of protein X5 of SARS-CoV Urbani [3]: 0.8
Binding of serum 1a to looped/cyclic peptides of protein X5 of SARS-CoV Urbani [3]: 0.8
Binding of serum 1b to linear peptides of protein X5 of SARS-CoV Urbani [3]: 0.9
Binding of serum 1b to looped/cyclic peptides of protein X5 of SARS-CoV Urbani [3]: 0.6
Binding of serum 2 to linear peptides of protein X5 of SARS-CoV Urbani [3]: 0.6
Binding of serum 2 to looped/cyclic peptides of protein X5 of SARS-CoV Urbani [3]: 0.6
Binding of serum 6 to linear peptides of protein X5 of SARS-CoV Urbani [3]: 0.8
Binding of serum 6 to looped/cyclic peptides of protein X5 of SARS-CoV Urbani [3]: 0.4
Binding of serum 37 to linear peptides of protein X5 of SARS-CoV Urbani [3]: 0.9
Binding of serum 37 to looped/cyclic peptides of protein X5 of SARS-CoV Urbani [3]: 0.7
Binding of serum 62 to linear peptides of protein X5 of SARS-CoV Urbani [3]: 0.9
Binding of serum 62 to looped/cyclic peptides of protein X5 of SARS-CoV Urbani [3]: 0.7
Binding of serum London to linear peptides of protein X5 of SARS-CoV Urbani [3]: 0.7
Binding of serum London to looped/cyclic peptides of protein X5 of SARS-CoV Urbani [3]: 0.3
Binding of serum SARS-green to linear peptides of protein X5 of SARS-CoV Urbani [3]: 0.9
Binding of serum SARS-green to looped/cyclic peptides of protein X5 of SARS-CoV Urbani [3]: 0.6
Binding of serum SARS-yellow to linear peptides of protein X5 of SARS-CoV Urbani [3]: 0.3
Binding of serum SARS-yellow to looped/cyclic peptides of protein X5 of SARS-CoV Urbani [3]: 0.5
